Assay results from paper PMC11940309, “Endocrine-Disrupting Activities of Flavones on Steroid Receptors: Structural Requirements and Synthesis of Novel Flavone with Improved Estrogenic Activity” (Biomedicines, 2025).

How the values were obtained:
[1] = test system: estrogen receptor (ER); experiment: ER-mediated luciferase reporter induction in T47D KBluc cells; format: cell-based, human; details: relative to 1nM estradiol
Method: Experiments testing the effect of flavonoids on estrogen receptor-mediated transcription employed T47D KBluc cells. These cells were maintained in RPMI medium with 10% FBS, penicillin (100 U/mL), and streptomycin (100 μg/mL). For reporter gene experiments, cells were detached as above and replated at 50% confluency in phenol red-free RPMI media with 10% charcoal-stripped FBS and antibiotics (day one). All subsequent steps used phenol red-free medium and trypsin. On day three, the medium was replaced with fresh medium. On day five, cells were washed with PBSE, detached, resuspended, diluted, and replated in the phenol red-free RPMI with charcoal-stripped serum (50,000 cells per well as above).
(§1) For all cell lines, cell harvesting and the luminescence assay for alkaline phosphatase and/or luciferase were performed as previously described in detail. Each condition was performed in quadruplicate. […] Percent inhibition is 100 minus the percent induction.

[2] = target: T1, progesterone receptor (PR) (Homo sapiens, UniProt P06401); experiment: PR-mediated induction of transcription by R5020 in T47D K5pLuc cells (luciferase reporter and endogenous alkaline phosphatase); format: cell-based; details: for inhibition at 4 µM / inhibition at 8 µM: T47D; for inhibition at 4 µM / inhibition at 8 µM / % Inhibition of PR Induction: R5020 1.0 nM
T1 sequence (P06401 679-933 limits assumed): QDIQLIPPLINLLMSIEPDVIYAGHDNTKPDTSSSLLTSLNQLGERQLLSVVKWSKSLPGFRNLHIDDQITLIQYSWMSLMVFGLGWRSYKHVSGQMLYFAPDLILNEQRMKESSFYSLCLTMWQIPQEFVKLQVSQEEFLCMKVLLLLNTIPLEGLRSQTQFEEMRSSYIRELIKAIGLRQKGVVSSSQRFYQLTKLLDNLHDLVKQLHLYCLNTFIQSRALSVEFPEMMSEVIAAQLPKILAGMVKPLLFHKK
From the text: The engineered T47D breast cancer cell lines employed for the assessment of flavonoid activity on glucocorticoid receptor (GR) and progesterone receptor (PR) signaling permitted the facile quantitation transcription of both an endogenous gene and a stably integrated reporter gene. […] The T47D K5pLuc cell line responds to progestins via induction of a stably integrated cytokeratin 5-luciferase reporter gene. […] For assessment of the effect of the test compounds on androgen receptor (AR) signaling, we used the HeLa13 cell line engineered to stably express human AR and a PSA-luciferase reporter gene containing a 4× multimerized PSA upstream enhancer ARE1 linked to the E4 TATA box and luciferase gene.
Experiments testing the effect of flavonoids on progesterone receptor-mediated transcription employed T47D K5pluc cells. The protocol was the same as that for T47D (A1-2) cells except the medium was Dulbecco’s Modified Eagle’s Medium supplemented with 10% FBS, insulin (10 nM), puromycin 200 ng/mL, nonessential amino acids, penicillin (100 U/mL), and streptomycin (100 μg/mL). When treated with hormone, the synthetic progestin, R5020, was used at 1.0 nM. Hormone treatment was for 20 h at which time cells were harvested for assay of alkaline phosphatase and luciferase.
as §1

[3] = 4 µM, AP (alkaline phosphatase)
[4] = 8 µM, AP (alkaline phosphatase)

O=c1cc(-c2ccc(O)c(O)c2)oc2ccccc12 [3′,4′-dihydroxyflavone]
% ER Induction ([1]; 1 µM): 0%
% ER Induction ([1]; 4 µM): 13%
inhibition at 4 µM [2, 3]: 8%
inhibition at 4 µM ([2]; 4 µM, LUC (luciferase)): -64%
inhibition at 8 µM [2, 4]: 27%
inhibition at 8 µM ([2]; 8 µM, LUC (luciferase)): -14%

O=c1cc(-c2ccc(O)cc2)oc2ccccc12 [4′-hydroxyflavone]
% ER Induction ([1]; 1 µM): 12%
% ER Induction ([1]; 4 µM): 130%
inhibition at 4 µM [2, 3]: 31%
inhibition at 4 µM ([2]; 4 µM, LUC (luciferase)): -62%
inhibition at 8 µM [2, 4]: 49%
inhibition at 8 µM ([2]; 8 µM, LUC (luciferase)): -81%

O=c1cc(-c2ccc(O)c(O)c2)oc2cccc(O)c12 [5,3′,4′-trihydroxyflavone]
% ER Induction ([1]; 1 µM): 0%
% ER Induction ([1]; 4 µM): 13%
inhibition at 4 µM [2, 3]: 46%
inhibition at 4 µM ([2]; 4 µM, LUC (luciferase)): -7%
inhibition at 8 µM [2, 4]: 65%
inhibition at 8 µM ([2]; 8 µM, LUC (luciferase)): 55%

O=c1cc(-c2ccc(O)cc2)oc2cccc(O)c12 [5,4′-dihydroxyflavone]
% ER Induction ([1]; 1 µM): 53%
% ER Induction ([1]; 4 µM): 138%
inhibition at 4 µM [2, 3]: 23%
inhibition at 4 µM ([2]; 4 µM, LUC (luciferase)): -12%
inhibition at 8 µM [2, 4]: 74%
inhibition at 8 µM ([2]; 8 µM, LUC (luciferase)): 80%

O=c1cc(-c2cc(O)c(O)c(O)c2)oc2cc(O)cc(O)c12 [5,7,3′4′,5′-pentahydroxyflavone]
% ER Induction ([1]; 1 µM): 0%
% ER Induction ([1]; 4 µM): −1%
% Inhibition of PR Induction [2, 3]: 12%
% Inhibition of PR Induction ([2]; 4 µM, LUC (luciferase)): −97%
% Inhibition of PR Induction [2, 4]: 45%
% Inhibition of PR Induction ([2]; 8 µM, LUC (luciferase)): −19%

O=C1CC(c2ccc(O)c(O)c2)Oc2cc(O)cc(O)c21 (stereo not shown) [5,7,3′,4′-tetrahydroxyflavanone]
% ER Induction ([1]; 1 µM): 0%
% ER Induction ([1]; 4 µM): 20%
inhibition at 4 µM [2, 3]: 8%
inhibition at 4 µM ([2]; 4 µM, LUC (luciferase)): 3%
inhibition at 8 µM [2, 4]: 40%
inhibition at 8 µM ([2]; 8 µM, LUC (luciferase)): 23%

O=c1cc(-c2ccc(O)c(O)c2)oc2cc(O)cc(O)c12 [5,7,3′,4′-tetrahydroxyflavone]
% ER Induction ([1]; 1 µM): 3%
% ER Induction ([1]; 4 µM): 80%
inhibition of PR-mediated gene expression of both reporter genes ([2]; 4.0 micromolar): at least 70%
inhibition of PR-mediated gene expression of both reporter genes ([2]; 8.0 micromolar): ≥ 90%
IC50 ([2]; R5020, alkaline phosphatase and luciferase, read-out: IC50, inhibition of PR-mediated induction of gene expression): 1000 to 2000 nM
inhibition at 4 µM [2, 3]: 82%
inhibition at 4 µM ([2]; 4 µM, LUC (luciferase)): 76%
inhibition at 8 µM [2, 4]: 95%
inhibition at 8 µM ([2]; 8 µM, LUC (luciferase)): 95%

COc1ccc([C@@H]2CC(=O)c3c(O)cc(O)cc3O2)cc1O [5,7,3′-triOH, 4′methoxyflavanone]
% ER Induction ([1]; 1 µM): 10%
% ER Induction ([1]; 4 µM): 6%
inhibition at 4 µM [2, 3]: 8%
inhibition at 4 µM ([2]; 4 µM, LUC (luciferase)): -6%
inhibition at 8 µM [2, 4]: 28%
inhibition at 8 µM ([2]; 8 µM, LUC (luciferase)): 16%

O=C1CC(c2ccc(O)cc2)Oc2cc(O)cc(O)c21 (stereo not shown) [5,7,4′-trihydroxyflavanone]
% ER Induction ([1]; 1 µM): 48%
% ER Induction ([1]; 4 µM): 93%
inhibition at 4 µM [2, 3]: 43%
inhibition at 4 µM ([2]; 4 µM, LUC (luciferase)): 52%
inhibition at 8 µM [2, 4]: 90%
inhibition at 8 µM ([2]; 8 µM, LUC (luciferase)): 98%

O=c1c(-c2ccc(O)cc2)coc2cc(O)cc(O)c12 [5,7,4′-trihydroxyisoflavone]
% ER Induction ([1]; 1 µM): 125%
% ER Induction ([1]; 4 µM): 180%
inhibition at 4 µM [2, 3]: 49%
inhibition at 4 µM ([2]; 4 µM, LUC (luciferase)): -96%
inhibition at 8 µM [2, 4]: 32%

O=c1cc(-c2ccccc2)oc2cc(O)cc(O)c12 [5,7-dihydroxyflavone]
inhibition of PR-mediated gene expression of both reporter genes ([2]; 4.0 micromolar): at least 70%
inhibition of PR-mediated gene expression of both reporter genes ([2]; 8.0 micromolar): ≥ 90%
inhibition at 4 µM [2, 3]: 78%
inhibition at 4 µM ([2]; 4 µM, LUC (luciferase)): 71%
inhibition at 8 µM [2, 4]: 89%
inhibition at 8 µM ([2]; 8 µM, LUC (luciferase)): 90%

O=c1cc(-c2ccc(O)cc2)oc2ccc(O)cc12 [6,4′-dihydroxyflavone]
% ER Induction ([1]; 1 µM): 119%
% ER Induction ([1]; 4 µM): 192%
inhibition at 4 µM [2, 3]: 39%
inhibition at 4 µM ([2]; 4 µM, LUC (luciferase)): -147%
inhibition at 8 µM [2, 4]: 37%
inhibition at 8 µM ([2]; 8 µM, LUC (luciferase)): -103%

O=c1cc(-c2ccc(O)c(O)c2)oc2cc(O)ccc12 [7,3′,4′-trihydroxyflavone]
% ER Induction ([1]; 1 µM): 0%
% ER Induction ([1]; 4 µM): 30%
inhibition at 4 µM [2, 3]: 13%
inhibition at 4 µM ([2]; 4 µM, LUC (luciferase)): -11%
inhibition at 8 µM [2, 4]: 39%
inhibition at 8 µM ([2]; 8 µM, LUC (luciferase)): -10%

O=c1cc(-c2ccc(O)cc2)oc2cc(O)ccc12 [7,4′-dihydroxyflavone]
% ER Induction ([1]; 1 µM): 86%
% ER Induction ([1]; 4 µM): 140%
inhibition at 4 µM [2, 3]: 41%
inhibition at 4 µM ([2]; 4 µM, LUC (luciferase)): -16%
inhibition at 8 µM [2, 4]: 55%
inhibition at 8 µM ([2]; 8 µM, LUC (luciferase)): -49%

O=c1c(-c2ccc(O)cc2)coc2cc(O)ccc12 [7,4′-dihydroxyisoflavone]
% ER Induction ([1]; 1 µM): 125%
inhibition at 4 µM [2, 3]: 41%
inhibition at 4 µM ([2]; 4 µM, LUC (luciferase)): -13%
inhibition at 8 µM [2, 4]: 38%
inhibition at 8 µM ([2]; 8 µM, LUC (luciferase)): -126%

O=c1cc(-c2ccccc2)oc2ccccc12 [flavone]
% ER Induction ([1]; 1 µM): 1%
% ER Induction ([1]; 4 µM): 3%
inhibition at 4 µM [2, 3]: 10%
inhibition at 4 µM ([2]; 4 µM, LUC (luciferase)): -66%
inhibition at 8 µM [2, 4]: 40%
inhibition at 8 µM ([2]; 8 µM, LUC (luciferase)): -107%
